Experimental data from patent US20080167532A1, “ASSESSING CANCER TREATMENT RESPONSIVENESS” (Mayo Foundation for Medical Education and Research, priority 2006, published 2008).

Legend:
DRO cells = experiment: Clonogenic growth of DRO cells in soft agar; type: cell-based, human; conditions: two weeks
Experimental: The ability of RS5444 to inhibit clonogenic growth of DRO cells in soft agar was also examined (FIG. 3C). DRO cells were plated in triplicate on soft agar for colony formation and treated with the indicated doses of RS5444. Colonies were stained and counted after two weeks.

DRO = experiment: ATC (DRO) tumor growth in athymic nude mice, RS5444 in diet; type: in vivo; conditions: for tumor growth inhibition: started one week prior to DRO implantation
Experimental: RS5444 was added to the rodent diet one week prior to tumor implantation with DRO. […] Suspensions of 1×10^6/0.1 mL DRO or ARO cells in RPMI medium were injected subcutaneously in one flank of 3 to 4 week old athymic female nude mice. […] Mice weighed between 20-25 grams and consumed on average 4 grams of food per day (1 mg/day of RS5444).

[1] = test system: ATC tumors implanted into athymic nude mice; experiment: Affymetrix Plus 2.0 array, nucleic acid expression in DRO tumors implanted into athymic nude mice; type: in vivo
Experimental: Affymetrix Plus 2.0 arrays were used to identify nucleic acids altered between control vehicle-treated and RS5444-treated ATC cells from cell culture and tumors implanted ectopically into athymic nude mice. Cells in culture were treated with a single dose of 10 nM RS5444 for either 2, 6, or 24 hours. Animals were treated with 0.025% RS5444 after implantation of 1×10^6 DRO cells. Animals were fed a diet including 0.025% RS5444 for 35 days, and tumor volume was measured weekly. Tumor tissues were removed, RNA was isolated, and nucleic acid expression was analyzed. Examples of some nucleic acids, the expression of which was altered in both the animal derived tumors and cells in culture, are presented in Table 1. Some of the nucleic acids regulated by PPARγ in ATC cells (e.g., BMP2, MMP14, ANGPTL4, and ITGA5) are secreted polypeptides (Table 1).

[2] = test system: DRO and ARO tumor tissues; experiment: Western blot of DRO and ARO tumor tissues from athymic nude mice; type: in vivo
Experimental: RhoB and p21^WAF1/CIP1 polypeptide expression also was examined in DRO and ARO tumor tissues removed from athymic nude mice following 35 days of treatment with vehicle control (−) or 0.025% RS5444 in the diet. Beta-actin was used as a normalization control to ensure even loading of total polypeptide in all lanes.
Suspensions of 1×10^6/0.1 mL DRO or ARO cells in RPMI medium were injected subcutaneously in one flank of 3 to 4 week old athymic female nude mice. Mice were changed to specialized diets 1 week after tumor implantation and randomly assigned to diets consisting of either 0.025% RS5444 or sham control (Research Diets). Mice weighed between 20-25 grams and consumed on average 4 grams of food per day (1 mg/day of RS5444). Tumors were measured every 3 to 4 days for 35 days with calipers and tumor volumes were calculated by the formula: 0.5236(a×b×c), where a is the shortest diameter, b is the diameter perpendicular to a, and c is the diameter height.
Cells were collected and lysed in RIPA buffer containing 50 mM Tris, 5 mM EDTA, 150 mM NaCl, 0.1% SDS, 0.5% Deoxycholate, 1% NP40, and protease inhibitor cocktail (Roche) followed by centrifugation. Excised tumor tissues were lysed in 50 mM Tris pH 8.0+1% SDS. Collected supernatants were, analyzed for protein concentration using Pierce's BCA assay, with 25 μg protein loaded per gel lane (Invitrogen) with later transfer to Immobilon-P membranes. The membranes were hybridized with antibodies (Santa Cruz, Cell Signaling, Sigma-Aldrich, St. Louis Mo.) as indicated overnight at 4° C. followed by treatment with species-specific horseradish peroxidase IgG (Jackson labs) for 45 minutes at room temperature. Detection was performed using Supersignal West Pico chemoluminescence kit (Pierce). Quantification of bands was performed in triplicate using Image Quant 5.2 (Molecular Dynamics, Sunnyvale Calif.).

PPARγ = molecular target: T1, PPARγ (Homo sapiens, UniProt P37231); experiment: PPRE3-tk-luc reporter (dual luciferase) assay in DRO cells; type: cell-based; design: endogenous in cells; host or cells: DRO90-1 (DRO) human anaplastic thyroid carcinoma cells; conditions: DRO cells, PPRE3-tk-luc reporter, 24 hours; read-out: EC50, concentration at which 50% maximal transcriptional response occurs
T1 sequence (P37231 1-505): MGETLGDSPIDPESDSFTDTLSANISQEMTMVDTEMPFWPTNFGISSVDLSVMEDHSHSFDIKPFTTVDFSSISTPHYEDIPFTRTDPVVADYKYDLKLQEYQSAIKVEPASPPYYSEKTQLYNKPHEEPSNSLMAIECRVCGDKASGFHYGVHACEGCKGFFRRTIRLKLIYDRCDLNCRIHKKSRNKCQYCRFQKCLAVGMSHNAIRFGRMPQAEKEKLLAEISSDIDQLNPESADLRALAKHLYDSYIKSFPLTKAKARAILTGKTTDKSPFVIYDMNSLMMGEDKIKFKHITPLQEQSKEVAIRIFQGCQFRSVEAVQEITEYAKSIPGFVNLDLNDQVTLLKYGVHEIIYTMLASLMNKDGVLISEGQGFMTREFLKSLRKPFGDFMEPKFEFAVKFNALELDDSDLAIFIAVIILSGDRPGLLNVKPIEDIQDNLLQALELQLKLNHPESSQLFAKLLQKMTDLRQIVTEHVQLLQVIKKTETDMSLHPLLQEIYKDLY
Experimental: The effects of PPARγ agonists on DRO cells were investigated. […] Firefly luciferase activity was normalized to renilla […] activity (RLU) and plotted as mean values ±S.D. (FIG. 3A).
Cells were transfected with siRNA for 72 hours followed by transfected with a PPRE3-tk-luc reporter and treatment with 10 nM RS5444 for 24 hours. […] Cotransfection with renilla luciferase allowed for normalization to relative light units (RLU).
Cells were plated in 6-well culture plates at initial concentrations of 2×10^5 cells/well. After overnight incubation, cells were transfected with PPRE/luc and CMV/renilla luciferase plasmid using Lipofectamine 2000 (Invitrogen), and after 24 hours, cells were treated with PPAR-γ agonists at indicated concentrations. After 24 hours of drug treatments, cells were washed with PBS and lysed in 1× reporter lysis buffer (Roche), and luciferase activity was measured with a Dual Luciferase assay kit (Promega, Madison Wis.) with a luminometer (Veritas/Turner Biosystems). The enzyme activity was normalized for efficiency of transfection on the basis of renilla activity levels and reported as relative light units (RLU).

[3] = DRO and ARO tumors, 0.025% in diet for 35 days

- EC50 (PPARγ): ~1 nM
SMILES: Cc1cc(Oc2ccc3nc(COc4ccc(CC5SC(=O)NC5=O)cc4)n(C)c3c2)cc(C)c1N (stereo not drawn) [RS5444]
- inhibition of colony formation in soft agar (DRO cells; 1 nM): 63%
- inhibition of colony formation in soft agar (DRO cells; 10 nM): 98%
- inhibition of colony formation in soft agar (DRO cells; 100 nM): 99.4%
- tumor growth inhibition (DRO; 0.00025% in diet): No inhibition of tumor growth
- tumor growth inhibition (DRO; 0.0025% in diet): 54.5%
- mice that did not form tumors (DRO; 0.025% diet group): 5 of 10
- tumor growth inhibition (DRO; 0.025% in diet): 89.7%
- Fold change in vivo, ADRB1 ([1]; ADRB1, 0.025% in diet for 35 days): −2 fold
- Fold change in vivo, ANGPTL4 ([1]; ANGPTL4, 0.025% in diet for 35 days): 2 fold
- Fold change in vivo, BMP2 ([1]; BMP2, 0.025% in diet for 35 days): 3.8 fold
- Fold change in vivo, HR ([1]; HR, 0.025% in diet for 35 days): 1.5 fold
- Fold change in vivo, IL1B ([1]; IL1B, 0.025% in diet for 35 days): 5.6 fold
- Fold change in vivo, ITGA5 ([1]; ITGA5, 0.025% in diet for 35 days): 1.9 fold
- Fold change in vivo, LMAN1 ([1]; LMAN1, 0.025% in diet for 35 days): −4.3 fold
- Fold change in vivo, MMP14 ([1]; MMP14, 0.025% in diet for 35 days): 2.5 fold
- Fold change in vivo, RhoB ([1]; RhoB, 0.025% in diet for 35 days): 2 fold
- RhoB polypeptide in tumors (Western blot) ([2]; ATC tumors from mice, 4 weeks of 0.025% in diet): elevated
- RhoB polypeptide expression in tumors [2, 3]: elevated
- cyclin E levels in tumors [2, 3]: down-regulated
- p21WAF1/CIP1 polypeptide expression in tumors [2, 3]: elevated
